Reference: patent US10035800B2 (AbbVie Inc., priority 2013, dated 2018)

How the values were obtained:
BRD4 (BDII_E352-M457) = molecular target: T1, BRD4 (BDII_E352-M457) (Homo sapiens, UniProt O60885); test: TR-FRET bromodomain binding assay, second bromodomain of BRD4; conditions: TR-FRET assay protocol G (compound 0.92 μM-15 pM); 30 nM probe
T1 construct: protocol; made in house
Procedure: (§1) Bromodomain Domain Binding Assay
(§2) A time-resolved fluorescence resonance energy transfer (TR-FRET) assay was used to determine the affinities of compounds of the Examples listed in Table 1 for each bromodomain of BRD4. His-tagged first (BD1: amino acids K57-E168) and second (BD2: amino acids […]) bromodomains of BRD4 were expressed and purified. An Alexa647-labeled BET-inhibitor was used as the fluorescent probe in the assay.
(§3) Compound dilution series were prepared in DMSO via an approximately 3-fold serial dilution from one of the following: […]
(§4) Assay method E: 0.47 mM to 7.8 nM […]
(§5) Assay method G: 0.047 mM to 0.78 nM
(§6) or 5-fold serial dilution from one of the following: […]
(§7) Assay method B: 2.5 mM-797 nM […]
(§8) For Assay methods B, E, and G: Compound dilutions were added directly into white, low-volume assay plates (Perkin Elmer Proxiplate 384 Plus#6008280) using a Labcyte Echo in conjunction with Labcyte Access and Thermo Multidrop CombinL robotics. Compounds were then suspended in eight microliters (μL) of assay buffer (20 mM Sodium Phosphate, pH 6.0, 50 mM NaCl, 1 mM Ethylenediaminetetraacetic acid disodium salt dihydrate, 0.01% Triton X-100, 1 mM DL-Dithiothreitol) containing His-tagged bromodomain, Europium-conjugated anti-His antibody (Invitrogen PV5596) and Alexa-647-conjugated probe.
(§9) The final concentration of 1× assay mixture for assay methods A, B, C, D, E, F, and G contains 2% DMSO, 8 nM His-tagged bromodomain, 1 nM Europium-conjugated anti-His-tag antibody and 100 nM or 30 nM probe (for BDI or BDII, respectively) and compound concentration in the range of: 50 μM-16 nM for method A, 49.02 μM-15.63 nM for method B, 25 μM-423 pM for method C, 10 μM-169 pM for method D, 9.19 μM-150 pM for method E, 5 μM-85 pM for method F, and 0.92 μM-15 pM for method G.
(§10) After a one-hour equilibration at room temperature, TR-FRET ratios were determined using an Envision multilabel plate reader (Ex 340, Em 495/520).
(§11) TR-FRET data were normalized to the means of 24 no-compound controls (“high”) and 8 controls containing 1 μM un-labeled probe (“low”). Percent inhibition was plotted as a function of compound concentration and the data were fit with the 4 parameter logistic equation to obtain IC50s. Inhibition constants (Ki) were calculated from the IC50s, probe Kd and probe concentration. Typical Z′ values were between 0.65 and 0.75. The minimum significant ratio was determined to evaluate assay reproducibility (Eastwood et al., (2006) J Biomol Screen, 11: 253-261). The MSR was determined to be 2.03 for BDI and 1.93 for BDII, and a moving MSR (last six run MSR overtime) for both BDI and BDII was typically <3.

BRD4 (BDI_K57-E168) = molecular target: T2, BRD4 (BDI_K57-E168) (Homo sapiens, UniProt O60885); test: TR-FRET bromodomain binding assay, first bromodomain of BRD4; conditions: TR-FRET assay protocol G (compound 0.92 μM-15 pM); 100 nM probe
T2 construct: BD1: amino acids K57-E168; made in house
Procedure: as §1, §2, §3, §4, §5, §6, §7, §8, §9, §10, §11

Molecule	Ki (BRD4 (BDII_E352-M457))	Ki (BRD4 (BDI_K57-E168))
Cn1cc2c3c(c[nH]c3c1=O)CN(Cc1ccccc1OCC(N)=O)c1ccc(CS(C)(=O)=O)cc1-2 [Example 262, 2-(2-((10-methyl-7-((methylsulfonyl)methyl)-11-oxo-10,11-dihydro-1H-1,4,10-triazadibenzo[cd,f]azulen-4(3H)-yl)methyl)phenoxy)acetamide]	13.2 nM	9.37 nM
Cn1cc2c3c(c[nH]c3c1=O)CN(C(=O)Nc1ccc(F)c(C(F)(F)F)c1)c1ccc(CS(C)(=O)=O)cc1-2 [Example 71, N-(4-fluoro-3-(trifluoromethyl)phenyl)-10-methyl-7-((methylsulfonyl)methyl)-11-oxo-10,11-dihydro-1H-1,4,10-triazadibenzo[cd,f]azulene-4(3H)-carboxamide]	26.7 nM	30.4 nM
CCOC(=O)C1c2c[nH]c3c(=O)n(C)cc(c23)-c2cc(C)cnc2N1c1ccc(F)cc1 (stereo not drawn) [Example 43, ethyl 4-(4-fluorophenyl)-7,10-dimethyl-11-oxo-3,4,10,11-tetrahydro-1H-1,4,5,10-tetraazadibenzo[cd,f]azulene-3-carboxylate]	24.7 nM	7.29 nM
COc1cccc(CC(=O)N2Cc3c[nH]c4c(=O)n(C)cc(c34)-c3cc(CS(C)(=O)=O)ccc32)c1 [Example 104, 4-(2-(3-methoxyphenyl)acetyl)-10-methyl-7-((methylsulfonyl)methyl)-3,4-dihydro-1H-1,4,10-triazadibenzo[cd,f]azulen-11(10H)-one]	26.2 nM	34.7 nM
4-([1,1′-biphenyl]−4-ylsulfonyl)-10-methyl-7-((methylsulfonyl)methyl)-3,4-dihydro-1H-1,4,10-triazadibenzo[cd,f]azulen-11(10H)-one [Example 75]	> 408 nM	> 238 nM
Cn1cc(-c2[nH]c3c(=O)n(C)cc4c3c2CN(c2ccccn2)c2ccc(S(C)(=O)=O)cc2-4)cn1 [Example 275, 10-methyl-2-(1-methyl-1H-pyrazol-4-yl)-7-(methylsulfonyl)-4-(pyridin-2-yl)-3,4-dihydro-1H-1,4,10-triazadibenzo[cd,f]azulen-11(10H)-one]	0.85 nM	2.09 nM
Cn1cc(-c2[nH]c3c(=O)n(C)cc4c3c2CN(c2ccccn2)c2ccc(CS(C)(=O)=O)cc2-4)cn1 [Example 273, 10-methyl-2-(1-methyl-1H-pyrazol-4-yl)-7-((methylsulfonyl)methyl)-4-(pyridin-2-yl)-3,4-dihydro-1H-1,4,10-triazadibenzo[cd,f]azulen-11(10H)-one]	0.88 nM	1.12 nM
COc1ccc(OC(=O)N2Cc3c[nH]c4c(=O)n(C)cc(c34)-c3cc(CS(C)(=O)=O)ccc32)cc1 [Example 97, 4-methoxyphenyl 10-methyl-7-((methylsulfonyl)methyl)-11-oxo-10,11-dihydro-1H-1,4,10-triazadibenzo[cd,f]azulene-4(3H)-carboxylate]	1.35 nM	3.21 nM
Cn1cc2c3c(c[nH]c3c1=O)C(C(=O)NCCCc1ccccc1)N(c1ccc(F)cc1F)c1ccc(CS(C)(=O)=O)cc1-2 (racemic) [Example 160, 4-(2,4-difluorophenyl)-10-methyl-7-((methylsulfonyl)methyl)-11-oxo-N-(3-phenylpropyl)-3,4,10,11-tetrahydro-1H-1,4,10-triazadibenzo[cd,f]azulene-3-carboxamide]	118 nM	125 nM
Cn1cc2c3c(c[nH]c3c1=O)CN(C(=O)OCC(C)(C)C)c1ccc(CS(C)(=O)=O)cc1-2 [Example 92, neopentyl 10-methyl-7-((methylsulfonyl)methyl)-11-oxo-10,11-dihydro-1H-1,4,10-triazadibenzo[cd,f]azulene-4(3H)-carboxylate]	5.58 nM	3.74 nM
COc1ccc(S(=O)(=O)N2Cc3c[nH]c4c(=O)n(C)cc(c34)-c3cc(CS(C)(=O)=O)ccc32)cc1 [Example 76, 4-((4-methoxyphenyl)sulfonyl)-10-methyl-7-((methylsulfonyl)methyl)-3,4-dihydro-1H-1,4,10-triazadibenzo[cd,f]azulen-11(10H)-one]	> 408 nM	> 238 nM
CN1CCCC(N2Cc3c[nH]c4c(=O)n(C)cc(c34)-c3cc(CS(C)(=O)=O)ccc32)CC1 (stereo not drawn) [Example 189]	22.3 nM	5.82 nM
Cn1cc2c3c(c[nH]c3c1=O)CN(C(=O)NCC1CCCCC1)c1ccc(CS(C)(=O)=O)cc1-2 [Example 67, N-(cyclohexylmethyl)-10-methyl-7-((methylsulfonyl)methyl)-11-oxo-10,11-dihydro-1H-1,4,10-triazadibenzo[cd,f]azulene-4(3H)-carboxamide]	> 408 nM	> 238 nM
7-fluoro-10-methyl-3,4-dihydro-1H-1,4,5,10-tetraazadibenzo[cd,f]azulen-11(10H)-one [Example 38]	> 408 nM	> 238 nM
tert-butyl 4-(3-(4-(2,4-difluorophenyl)-10-methyl-7-((methylsulfonyl)methyl)-11-oxo-3,4,10,11-tetrahydro-1H-1,4,10-triazadibenzo[cd,f]azulen-3-yl)propanamido)piperidine-1-carboxylate [Example 126]	80 nM	53.6 nM
Cn1cc2c3c(c[nH]c3c1=O)CN(S(=O)(=O)c1ccccc1)c1ccc(CS(C)(=O)=O)cc1-2 [Example 77, 10-methyl-7-((methylsulfonyl)methyl)-4-(phenylsulfonyl)-3,4-dihydro-1H-1,4,10-triazadibenzo[cd,f]azulen-11(10H)-one]	275 nM	> 238 nM
(R)—N-ethyl-7-(ethylsulfonyl)-10-methyl-11-oxo-4-(1-phenylpropyl)-3,4,10,11-tetrahydro-1H-1,4,10-triazadibenzo[cd,f]azulene-2-carboxamide [Example 272]	6.35 nM	58.9 nM
Cn1cc2c3c(c[nH]c3c1=O)C(C(=O)NCC(C)(C)O)N(c1ccc(F)cc1F)c1ccc(CS(C)(=O)=O)cc1-2 (stereo not drawn) [Example 165, 4-(2,4-difluorophenyl)-N-(2-hydroxy-2-methylpropyl)-10-methyl-7-((methylsulfonyl)methyl)-11-oxo-3,4,10,11-tetrahydro-1H-1,4,10-triazadibenzo[cd,f]azulene-3-carboxamide]	79.6 nM	81.4 nM
4-(1-ethylpiperidin-3-yl)-10-methyl-7-((methylsulfonyl)methyl)-3,4-dihydro-1H-1,4,10-triazadibenzo[cd,f]azulen-11(10H)-one [Example 190]	30.9 nM	26.7 nM
COCCC(C)N1Cc2c[nH]c3c(=O)n(C)cc(c23)-c2cc(CS(C)(=O)=O)ccc21 (racemic) [Example 186, 4-(4-methoxybutan-2-yl)-10-methyl-7-((methylsulfonyl)methyl)-3,4-dihydro-1H-1,4,10-triazadibenzo[cd,f]azulen-11(10H)-one]	9.2 nM	4.21 nM
Cn1cc2c3c(c[nH]c3c1=O)CN(C(=O)c1ccc(F)cc1F)c1ccc(CS(C)(=O)=O)cc1-2 [Example 112, 4-(2,4-difluorobenzoyl)-10-methyl-7-((methylsulfonyl)methyl)-3,4-dihydro-1H-1,4,10-triazadibenzo[cd,f]azulen-11(10H)-one]	15.2 nM	53.2 nM
Cn1cc2c3c(c[nH]c3c1=O)C(C(=O)NCCC#N)N(c1ccc(F)cc1F)c1ccc(CS(C)(=O)=O)cc1-2 (racemic) [Example 154, N-(2-cyanoethyl)-4-(2,4-difluorophenyl)-10-methyl-7-((methylsulfonyl)methyl)-11-oxo-3,4,10,11-tetrahydro-1H-1,4,10-triazadibenzo[cd,f]azulene-3-carboxamide]	53.1 nM	50.7 nM
10-methyl-7-((methylsulfonyl)methyl)-4-(1-((2-(trimethylsilyl)ethoxy)methyl)-1H-indazol-5-yl)-3,4-dihydro-1H-1,4,10-triazadibenzo[cd,f]azulen-11(10H)-one [Example 233]	3.77 nM	6.15 nM
CN1CCC(N2Cc3c[nH]c4c(=O)n(C)cc(c34)-c3cc(CS(C)(=O)=O)ccc32)C1 (stereo not drawn) [Example 187]	50 nM	5.74 nM
